Measurements: ChEMBL document CHEMBL1201862, “PubChem BioAssay data set” (2004)
“And” between values parts separate entries of the source, which are not always exact repeats. Equal entries are not always repeated.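 How tested: cells in 96-well plates exposed to compound for 48 hours at five concentrations. GI50 is the concentration that inhibits growth by half.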 The source made the active and inactive calls. Cut-off read from the data, not from the text of the source: active = GI50 up to about 1.1 µM and inactive = higher. Starred links: 1 amine or outer side, 2 acyl side, 3 side chain; linkers in the order of their positions; H or OH if unused. Non-standard residues stand in square brackets, D forms with d. Residues, ends and D or L forms follow the SMILES beside them. X35 = C=CCC(O[*:1])C(=O)[*:2]; NMeV = CN[CH](C(=O)O)C(C)C; NMeA = CN[CH](C)C(=O)O; βAla = NCCC(=O)O

How the values were obtained:
Experiment in all cases: NCI-60 cell line screen, 48 h
HT-29 = test system: HT-29
CAKI-1 = test system: CAKI-1
EKVX = test system: EKVX
UACC-257 = test system: UACC-257
TK-10 = test system: TK-10
OVCAR-5 = test system: OVCAR-5
T47D = test system: T47D
IGROV-1 = test system: IGROV-1
SF-268 = test system: SF-268
MDA-N = test system: MDA-N
SK-MEL-28 = test system: SK-MEL-28
SR = test system: SR
M14 = test system: M14
NCI/ADR-RES = test system: NCI/ADR-RES
SK-MEL-5 = test system: SK-MEL-5
SK-OV-3 = test system: SK-OV-3
SW-620 = test system: SW-620
A498 = test system: A498
UO-31 = test system: UO-31
HCC 2998 = test system: HCC 2998

SMILES	GI50 (HT-29)	GI50 (CAKI-1)	GI50 (EKVX)	GI50 (UACC-257)	GI50 (TK-10)	GI50 (OVCAR-5)	GI50 (T47D)	GI50 (IGROV-1)	GI50 (SF-268)	GI50 (MDA-N)	GI50 (SK-MEL-28)	GI50 (SR)	GI50 (M14)	GI50 (NCI/ADR-RES)	GI50 (SK-MEL-5)	GI50 (SK-OV-3)	GI50 (SW-620)	GI50 (A498)	GI50 (UO-31)	GI50 (HCC 2998)
NC(Cc1cc(Br)c(O)c(Br)c1)C(=O)O (configuration not stated)	> 100 µM (inactive)	> 100 µM (inactive)	> 100 µM (inactive)	> 100 µM (inactive)	> 100 µM (inactive)	> 100 µM (inactive)	> 100 µM (inactive)	> 100 µM (inactive)	> 100 µM (inactive)	> 100 µM (inactive)	> 100 µM (inactive)	> 100 µM (inactive)	> 100 µM (inactive)	> 100 µM (inactive)	> 100 µM (inactive)	> 100 µM (inactive)	> 100 µM (inactive)	> 100 µM (inactive)	–	–
COCC1OC([P+](c2ccccc2)(c2ccccc2)c2ccccc2)CC(OC)C1OC (configuration not stated)	–	> 100 µM (inactive)	42.6 µM (inactive)	21 µM (inactive)	55.7 µM (inactive)	51.5 µM (inactive)	20.6 µM (inactive)	–	–	37.2 µM (inactive)	68.1 µM (inactive)	17.4 µM (inactive)	40.8 µM (inactive)	> 100 µM (inactive)	18.2 µM (inactive)	32.6 µM (inactive)	35.5 µM (inactive)	37.2 µM (inactive)	> 100 µM (inactive)	–
C1=N\CCNCCNCC/N=C\c2ccc(cc2)OCc2cccc(n2)COc2ccc/1cc2	> 100 µM (inactive)	> 100 µM (inactive)	> 100 µM (inactive)	88.5 µM (inactive)	–	> 100 µM (inactive)	53.3 µM (inactive)	> 100 µM (inactive)	83.6 µM (inactive)	> 100 µM (inactive)	> 100 µM (inactive)	50.5 µM (inactive)	> 100 µM (inactive)	95.1 µM (inactive)	51.4 µM (inactive)	> 100 µM (inactive)	95.5 µM (inactive)	> 100 µM (inactive)	> 100 µM (inactive)	–
O=c1[nH]nc(Cc2ccc([N+](=O)[O-])cc2)n1CCO	> 100 µM (inactive)	> 100 µM (inactive)	> 100 µM (inactive)	> 100 µM (inactive)	> 100 µM (inactive)	> 100 µM (inactive)	> 100 µM (inactive)	> 100 µM (inactive)	> 100 µM (inactive)	> 100 µM (inactive)	> 100 µM (inactive)	–	> 100 µM (inactive)	> 100 µM (inactive)	> 100 µM (inactive)	> 100 µM (inactive)	> 100 µM (inactive)	> 100 µM (inactive)	> 100 µM (inactive)	> 100 µM (inactive)
CCOP(=O)(OCC)/C(=C/NC(=S)c1ccncc1)C(=O)OC	> 100 µM (inactive)	> 100 µM (inactive)	> 100 µM (inactive)	> 100 µM (inactive)	> 100 µM (inactive)	> 100 µM (inactive)	> 100 µM (inactive)	> 100 µM (inactive)	> 100 µM (inactive)	> 100 µM (inactive)	–	4.48 µM (inactive)	> 100 µM (inactive)	> 100 µM (inactive)	> 100 µM (inactive)	> 100 µM (inactive)	> 100 µM (inactive)	–	> 100 µM (inactive)	> 100 µM (inactive)
CCOC(=O)/C=C/CC(C)(C)CCOC(C)=O	> 10 µM (inactive)	> 10 µM (inactive)	–	> 10 µM (inactive)	> 10 µM (inactive)	> 10 µM (inactive)	> 10 µM (inactive)	> 10 µM (inactive)	> 10 µM (inactive)	> 10 µM (inactive)	> 10 µM (inactive)	> 10 µM (inactive)	> 10 µM (inactive)	> 10 µM (inactive)	> 10 µM (inactive)	> 10 µM (inactive)	> 10 µM (inactive)	–	> 10 µM (inactive)	> 10 µM (inactive)
Brc1cccc(C2ON=C(c3ccccc3)N2C23CC4CC(CC(C4)C2)C3)c1 (configuration not stated)	> 10 µM (inactive)	> 10 µM (inactive)	> 10 µM (inactive)	> 10 µM (inactive)	> 10 µM (inactive)	> 10 µM (inactive)	> 10 µM (inactive)	> 10 µM (inactive)	> 10 µM (inactive)	> 10 µM (inactive)	> 10 µM (inactive)	–	> 10 µM (inactive)	> 10 µM (inactive)	> 10 µM (inactive)	> 10 µM (inactive)	> 10 µM (inactive)	> 10 µM (inactive)	> 10 µM (inactive)	> 10 µM (inactive)
O=C1N/C(=N/N=C\C(O)C(O)C(O)CO)N/C1=C/c1ccc(Cl)cc1 (configuration not stated)	44.5 µM (inactive) and 31.8 µM (inactive)	57 µM (inactive) and 47 µM (inactive)	34.8 µM (inactive) and 26.7 µM (inactive)	> 100 µM (inactive)	> 100 µM (inactive) and 89.7 µM (inactive)	81.1 µM (inactive)	34.1 µM (inactive) and 21.9 µM (inactive)	30.6 µM (inactive) and 32.9 µM (inactive)	27 µM (inactive) and 30.3 µM (inactive)	46.2 µM (inactive) and 38.5 µM (inactive)	> 100 µM (inactive) and 64.6 µM (inactive)	–	25.9 µM (inactive)	55.5 µM (inactive) and 44.5 µM (inactive)	32 µM (inactive) and 46.6 µM (inactive)	63.5 µM (inactive)	60.5 µM (inactive) and 52.1 µM (inactive)	49.7 µM (inactive) and 39.8 µM (inactive)	28.8 µM (inactive) and 31.7 µM (inactive)	> 10 µM (inactive)
COC(=O)C1(C(=O)OC)CC2=C(S(=O)(=O)c3ccccc3)C[C@H](S(=O)(=O)c3ccccc3)[C@H]2C1	> 100 µM (inactive)	> 100 µM (inactive)	> 100 µM (inactive)	> 100 µM (inactive)	52.4 µM (inactive)	> 100 µM (inactive)	30.3 µM (inactive)	19.9 µM (inactive)	> 100 µM (inactive)	39.4 µM (inactive)	> 100 µM (inactive)	–	> 100 µM (inactive)	> 100 µM (inactive)	82.8 µM (inactive)	> 100 µM (inactive)	> 100 µM (inactive)	> 100 µM (inactive)	> 100 µM (inactive)	15.7 µM (inactive)
O=C1CCC2(CCO1)OCCO2	> 100 µM (inactive)	> 100 µM (inactive)	> 100 µM (inactive)	> 100 µM (inactive)	> 100 µM (inactive)	> 100 µM (inactive)	> 100 µM (inactive)	> 100 µM (inactive)	> 100 µM (inactive)	> 100 µM (inactive)	> 100 µM (inactive)	> 100 µM (inactive)	> 100 µM (inactive)	> 100 µM (inactive)	> 100 µM (inactive)	> 100 µM (inactive)	> 100 µM (inactive)	–	> 100 µM (inactive)	> 100 µM (inactive)
CC(C)[C@H]1C(=O)O[B@-](F)(c2ccccc2)/[N+]1=C\N(C)C	> 100 µM (inactive)	–	> 100 µM (inactive)	> 100 µM (inactive)	> 100 µM (inactive)	> 100 µM (inactive)	> 100 µM (inactive)	> 100 µM (inactive)	> 100 µM (inactive)	> 100 µM (inactive)	> 100 µM (inactive)	> 100 µM (inactive)	> 100 µM (inactive)	> 100 µM (inactive)	> 100 µM (inactive)	> 100 µM (inactive)	> 100 µM (inactive)	–	> 100 µM (inactive)	> 100 µM (inactive)
Cc1cc(N(C)C)c2ccccc2[n+]1CCCCCCCCCC[n+]1c(C)cc(N(C)C)c2ccccc21.[O-][Cl+3]([O-])([O-])[O-].[O-][Cl+3]([O-])([O-])[O-]	0.429 µM (active)	7.5 µM (inactive)	1.32 µM (inactive)	0.238 µM (active)	3.29 µM (inactive)	3.3 µM (inactive)	0.428 µM (active)	6.05 µM (inactive)	0.731 µM (active)	0.485 µM (active)	0.986 µM (active)	–	2.33 µM (inactive)	13.7 µM (inactive)	0.165 µM (active)	0.735 µM (active)	1.92 µM (inactive)	2.07 µM (inactive)	3.38 µM (inactive)	0.893 µM (active)
O=C(O)c1c(Br)c(Br)c(Br)c(Br)c1C1c2ccc(O)cc2Oc2cc(O)ccc21	> 100 µM (inactive)	> 100 µM (inactive)	> 100 µM (inactive)	> 100 µM (inactive)	> 100 µM (inactive)	> 100 µM (inactive)	> 100 µM (inactive)	> 100 µM (inactive)	> 100 µM (inactive)	> 100 µM (inactive)	> 100 µM (inactive)	–	> 100 µM (inactive)	> 100 µM (inactive)	> 100 µM (inactive)	> 100 µM (inactive)	> 100 µM (inactive)	> 100 µM (inactive)	33 µM (inactive)	68.1 µM (inactive)
C=CCC1OC(=O)CCNC(=O)C(C)N(C)C(=O)C(C(C)C)N(C)C(=O)C(C(C)CC)NC(=O)C2CCCN2C1=O (configuration not stated) (cyclo([X35]PI[NMeV][NMeA][βAla]); configuration not given here)	3.91 µM (inactive)	81.5 µM (inactive)	3.23 µM (inactive)	9.44 µM (inactive)	> 100 µM (inactive)	> 100 µM (inactive)	20.8 µM (inactive)	7.06 µM (inactive)	81.1 µM (inactive)	> 100 µM (inactive)	42.7 µM (inactive)	2.58 µM (inactive)	30.5 µM (inactive)	> 100 µM (inactive)	2.44 µM (inactive)	–	6.64 µM (inactive)	–	22.8 µM (inactive)	2.25 µM (inactive)
